# Test results: patent publication US20240344020A1, “CULTURE MEDIUM FOR LUNG CANCER EPITHELIAL CELLS, CULTURE METHOD, AND APPLICATION THEREOF” (PRECEDO PHARMACEUTICALS CO., LTD, priority 2021, published 2024)
# Test system: primary lung cancer cells (No. B5)
# Test: Effects of different factors added to basic medium BM on proliferation of primary lung cancer cells (cell count after 12 days)
# Type: cell-based, human
# Settings: factor added alone to BM at the concentrations of Table 3; 12 days culture; FIGS. 1A-D
# Procedure: Extracellular matrix gel (Matrigel®) (manufactured by BD Biosciences) was diluted with serum-free DMEM/F12 medium at a ratio of 1:100 to prepare an extracellular matrix diluent. The extracellular matrix diluent was added to a 48-well culture plate with 500 μl/well to completely cover the bottom of the wells of the culture plate. The culture plate was let stand for 1 hour in a 37° C. incubator. After 1 hour, the extracellular matrix diluent was removed to provide a Matrigel-coated plate.
# Preparation of basic medium (abbreviated as BM): BM was prepared by adding 0.2 vol. % of Primocin (purchased from Invivogen, with a concentration of 50 mg/ml) to the commercial DMEM/F-12 medium to provide a final concentration of 100 μg/ml.
# Next, different kinds and concentrations of additive factors (Table 3) were added to the basic medium (BM), so as to prepare culture mediums for lung cancer epithelial cells containing different additive components.
# The culture mediums with different components were added at a volume of 500 μl/well to 48-well plates which were coated with extracellular matrix gel (Matrigel). Lung cancer cells (No. B5) isolated from lung cancer tissues according to the same method as described in Example 1 were inoculated at a cell density of 2×10^4 cells/cm^2 in the above-mentioned 48-well culture plates which were coated with Matrigel. After surface disinfection, the plates were placed in a 37° C., 5% CO2 incubator (purchased from Thermo Fisher), and the same number of freshly isolated lung cancer tumor cells (No. B5) were cultured under different medium formulations. The culture mediums were replaced every 4 days after the start of culture. After 12 days of culture, cell counts were performed. The basic medium (BM) without addition of any additive was used as a control. The results were shown in FIGS. 1A-D. The ordinate in the figures represents the ratio of the number of cells obtained after culture in different mediums to the number of cells obtained after culture in basic medium BM.
row,Molecule,effect on cell proliferation (ratio of cell number to that in basic medium BM)
1,"Cc1cccc(-c2nn(C(=S)Nc3ccccc3)cc2-c2ccnc3ccccc23)n1 [Compound A83-01, A83-01, reference compound]",certain promoting effects on cell proliferation
2,"CN1C(=O)C(c2c(F)cccc2F)N(C)c2nc(Nc3ccc(S(N)(=O)=O)cc3)ncc21 (stereo not shown) [Compound 1, 4-((7-(2,6-difluorophenyl)-5,8-dimethyl-6-oxo-5,6,7,8-tetrahydropteridin-2-yl)amino)benzsulfamide]",certain promoting effects on cell proliferation
3,insulin-like growth factor 1: growth factor from Sino Biological Inc.,certain promoting effects on cell proliferation
4,hepatocyte growth factor: growth factor from Sino Biological Inc.,certain promoting effects on cell proliferation
5,interleukin 6: cytokine from Sino Biological Inc.,certain promoting effects on cell proliferation
6,"C[C@@H](N)[C@H]1CC[C@H](C(=O)Nc2ccncc2)CC1 [Compound Y27632, Y27632, reference compound]",certain promoting effects on cell proliferation
7,"fibroblast growth factor 7: growth factor from Sino Biological Inc. (protein, UniProt P21781 32-194, looked up) Fibroblast growth factor 7: CNDMTPEQMATNVNCSSPERHTRSYDYMEGGDIRVRRLFCRTQWYLRIDKRGKVKGTQEMKNNYNIMEIRTVAVGIVAIKGVESEFYLAMNKEGKLYAKKECNEDCNFKELILENHYNTYASAKWTHNGGEMFVALNQKGIPVRGKKTKKEQKTAHFLPMAIT",certain promoting effects on cell proliferation
